In US12527849B2, “Apparatus for determining administration form of a composition of an engineered virus-based nanoparticle for a treatment of an autoimmune condition” (Diamante Srl, priority 2021, dated 2026):

System: IFN-γ
Assay: Cytokine ELISA in CIA mice, day 60: IFN-γ
Format: in vivo
Text: With continued reference to FIG. 1, in some embodiments, administration 116 may be done to an animal. As a non-limiting example, the animal may include a mouse, a fish, a rabbit, human, and the like. As a non-limiting example, administration 116 of composition of the engineered virus-based nanoparticle for a treatment of an autoimmune condition may be done to dilute, brown, and non-agouti (DBA) mice based on their susceptibility to collagen-induced arthritis (CIA). Female DBA/1 mice 6 to 8 weeks of age may be maintained under specific pathogen-free conditions. CIA may be induced by the intradermal tail base injection of 100 μg of chicken type II collagen (Sigma-Aldrich) as previously described. Five mice per group may be immunized on days 0 and 21 to induce arthritis. The onset of disease may be confirmed on the day that swelling or erythema may be observed in any paw, typically 4 to 10 days after the second immunization. […] CIA may be assessed using a macroscopic score system based on the visual identification of arthritic limbs. The clinical severity of arthritis may be evaluated as follows: Each mouse may be inspected every 2 to 3 days for three different parameters: (i) swelling of the hind ankle and foot, measured with calipers; (ii) erythema of each leg; and (iii) swelling of the fingers. The RA index for each mouse was expressed as the mean of the three scores from the individual parameters. At the end of the experiment (60 days), we determined the proportion of CD25+Foxp3+ cells in the lymph nodes and measured cytokine titers in the lymph nodes, joints, and serum.
With continued reference to FIG. 1, in some embodiments, processor 104 may determine critical administration 124 as a function of a cytokine profile and a proportion of CD25^+ Foxp3^+ cells. […] In some embodiments, to quantify cytokines in DBA mice, joint tissues may be pulverized and resuspended in 1 ml of lysis medium per 100-mg joint weight for 60 min at 37′C, followed by centrifugation to remove debris. […]

C[C@@H]1C[C@H]2[C@@H]3CCC4=CC(=O)C=C[C@]4(C)[C@@]3(F)[C@@H](O)C[C@]2(C)[C@@]1(O)C(=O)CO [Dexamethasone, dexamethasone]
IFN-γ J (joint supernatant, CIA mice, day 60, mean n=3): 187.23 pg/mL
IFN-γ LN (lymph node supernatant, CIA mice, day 60, mean n=3): 210.86 pg/mL
IFN-γ S (serum pooled from five CIA mice, day 60): 75.6 pg/mL
